C[C@H](NC(=O)[C@@H](N)CCC(=O)O)C(=O)N[C@@H](CC(=O)O)C(=O)N1CCC[C@H]1C(=O)N[C@H](C(=O)NCC(=O)N[C@@H](Cc1c[nH]cn1)C(=O)N[C@@H](CO)C(=O)N[C@@H](Cc1ccc(O)cc1)C(=O)O)[C@@H](C)O [MZ2-E]
t ½ of degradation by peptidase present in human serum: ½
